The results in this text go back to patent US20260365696A1, “INHIBITORS OF PTP1B / NCK1 INTERACTION AND METHODS OF MAKING AND USING SAME” (Radella Pharmaceuticals LLC, priority 2023, published 2026).

Non-standard residues stand in square brackets, D forms with d. Residues, ends and D or L forms follow the SMILES beside them. pGlu = O=C1CC[C@@H](C(=O)O)N1

In one experiment the target is T1, SH3-2 domain of NCK1 (Homo sapiens, UniProt P16333).
T1 construct: To amplify the NCK1 SH3-2 domain, the primers; 10xHis tag with TEV site (vector pSF-OXB20-NH2-10HIS) (N, cleaved yes); made in house; host or cells: E. coli C43(DE3)
In words: Isothermal titration calorimetry (ITC) binding to NCK1 SH3-2 domain. Conditions: Alanine scanning of the MD17 15-mer peptide; ITC, 25 °C, pH 8.0. An excerpt: Human PTP1B cDNA (NM_002827) and human NCK1 cDNA (NM 006153) were obtained (Origene, MD, USA). PTP1B Primers were designed to amplify the ORFs with added homology to the cut vector (EcoRI-digested pSF-OXB20-NH2-10HIS) in the forward primer sequence. To amplify full-length PTP1B, the primers ptp1b_FL_fwd ([…]) (SEQ ID NO: 159) and ptp1b_FL_rev ([…]) (SEQ ID NO: 160) were used. To amplify truncations of PTP1B, the following primer pairs were used: ptp1b_FL-Fwd and one of Ptplb_323stop_rev (gtgcaggaggagttcgaatt[…]) (SEQ ID NO: 161), ptp1b_344stop_rev ([…]) (SEQ ID NO: 162) or ptp1b_278stop_rev([…]) (SEQ ID NO: 163). To amplify the NCK1 SH3-2 domain, the primers ncklsh32_fwd ([…]) (SEQ ID NO: 164) and ncklsh32_rev ([…]) (SEQ ID NO: 165) were used. The amplified fragments were purified using a DNA clean-up kit according to manufacturer's instructions (QIAquick PCR purification kit, Qiagen).
To produce and purify fusion proteins, a culture was inoculated with 1% of overnight-cultured inoculum. Protein expression was carried out under the conditions described above, scaled up as necessary. Cells expressing the recombinant proteins were harvested in 50 mL tubes by centrifugation and stored at −80 °C. Cells containing the expressed gene product were thawed over ice and resuspended in Extraction buffer (10 mM Tris, pH 7.4 or 10 mM Sodium Phosphate, pH 8.0; 300 mM NaCl, 1 mM DTT or TCEP; 0-10% glycerol and 1 μg lysozyme) and sonicated over ice (4 °C) for 3 min total using pulses of 5 s with 15 s intervals, using a wide probe at 15 amplitude microns (Soniprep 150, MSE). Insoluble material was removed from the lysate by centrifugation at 20K rpm for 20-60 min at 4 °C. Supernatant was filtered through a 0.22 μm PVDF filter membrane and applied to 1-2 5 mL HisTrap FF Crude (Cytiva) prepacked Ni columns and connected to an AKTA explorer. After thorough washing with binding buffer (10 mM Tris, pH 7.4 or 10 mM Sodium Phosphate, pH 8.0; 300 mM NaCl; 1 mM DTT or TCEP and 25 mM Imidazole), protein was eluted using elution buffer (10 mM Tris, pH 7.4 or 10 mM Sodium Phosphate, pH 8.0; 150-300 mM NaCl; 1 mM DTT or TCEP and 250 mM Imidazole). Fractions containing protein of interest were confirmed by SDS PAGE. Protein was diluted with GF buffer (10 mM Tris, pH 7.4 or 10 mM Sodium Phosphate, pH 8.0; 150-300 mM NaCl) and subjected to TEV protease treatment overnight at 4-10 °C. Following proteolytic digestion, HIS-tag and TEV protease were removed by filtration through a clean 5 mL HisTrap FF Crude (Cytiva) prepacked Ni column. Protein was concentrated on a PES ultrafiltration device by centrifugation at 4000 rpm at 4 °C, and protein was polished via a HiPrep S-100 26/60 (Cytiva) using GF buffer (as described above). Purified proteins were concentrated using ultrafiltration, and protein concentration was determined using ultraviolet-visible spectroscopy. The integrity and identity of all proteins were verified by mass spectrographic analysis.
Isothermal titration calorimetry (ITC) was used to determine binding affinities for peptides against the SH3-2 domain of NCK1. Experiments were conducted at 25 °C using either a MicroCal iTC200 or MicroCal PEAQ-ITC calorimeter. The buffer used for all ITC experiments was 10 mM sodium [COMPOUND LEFT OUT] mM sodium chloride (pH=8.0). A series of peptides (concentration 3-7.5 mM) were titrated in to NCK1 SH3-2 domain (concentration 0.125-0.3 mM) using the following conditions: one injection of 0.2 μL followed by 19 injections of 2 μL, 120-150 seconds spacing between injections, at 25 °C. The data were fit using analysis software provided by the manufacturer and affinity values were calculated. The best fitting occurred when the number of sites was between 0.8 and 1.2. The experiments were repeated twice for a total of three times, and the average binding affinity for each peptide was generated. […]
For orientation: ITC needs no label: the signal is the heat of the interaction.
In general, Kd refers to the constant that tells how readily two partners part at equilibrium. Ac-PAPEHIPPPPRPPKR-NH2 [MSJ013] yielded a Kd of at most 300 µM. Compound Ac-PPPEHAPPPPRPPKR-NH2 [MSJ017] showed a Kd of at most 300 µM. The compound Ac-PPPEHIAPPPRPPKR-NH2 [MSJ018] displayed a Kd of at most 300 µM. The compound Ac-PPPEHIPPPPRPPAR-NH2 [MH006] registered a Kd of at most 300 µM. On the same count and under the same terms, under Ac-PPPEHIPPPARPPKR-NH2 [MH002] stands over 1000 µM. Regarding Ac-PPPEHIPPPPAPPKR-NH2 [MH003], the Kd was at most 300 µM.

The same experiment, now with this note: Alanine scanning of the MD20 6-mer peptide; ITC, 25 °C, pH 8.0.
In the case of Ac-PRPPKA-NH2 [MH013, Ac-PRPPKA-NH2], the Kd is over 1000 µM.

Compound Ac-PAPPKR-NH2 [MH009, Ac-PAPPKR-NH2] registered a Kd of at most 300 µM. Compound Ac-PRPAKR-NH2 [MH011, Ac-PRPAKR-NH2] had a Kd of over 1000 µM.

The experiment is the same for the next values; noted with them: ITC.
Consider Ac-PRPPKA-NH2 [MH013, Ac-PRPPKA-NH2], for which the “binding to NCK1 SH3-2 domain (in words)” value is on record as “abolished binding”. As for Ac-PRPPK-NH2 [MH022, Ac-PRPPK-NH2], the “binding to NCK1 SH3-2 domain (in words)” value was “abolished binding”.

Still in this experiment, the particulars now being: Modified MD18/MD20 peptides; ITC, 25 °C, pH 8.0.
In the case of H-PRPPKR-NH2 [MH080, H-PRPPKR-NH2], the Kd was over 1000 µM. Ac-PPRPPKK-NH2 [MH076, Ac-PPRPPKK-NH2]: the Kd was over 1000 µM. H-PPRPPKR-NH2 [MH075, H-PPRPPKR-NH2]: the Kd is at most 300 µM.

The compound `N=C(N)NCCC[C@H](NC(=O)[C@H](CCCCN)NC(=O)[C@@H]1CCCN1C(=O)[C@@H]1CCCN1C(=O)[C@H](CCCNC(=N)N)NC(=O)[C@@H]1CCC(=O)N1)C(N)=O` [MH044, H-Pyr-RPPKR-NH2] ([pGlu]RPPKR-NH2) showed a Kd of over 1000 µM.

Still in this experiment, the particulars now being: N- or C-terminal extensions; ITC, 25 °C, pH 8.0; 30-mers tested one to three times.
Regarding Ac-HEDLEPPPEHIPPPPRPPKR-NH2 [MH090], the Kd is at most 300 µM. “Ac-PPPEHIPPPPRPPKRILEPHNGKCR-NH2 [MH134]”: the Kd was at most 300 µM.

As to Ac-PPPEHIPPPPRPPKRILEPH-NH2 [MH089], the Kd is at most 300 µM. Still for that read-out and setting: under Ac-PPRPPKRILE-NH2 [MH065] stands at most 300 µM; under “Ac-SVQDQWKELSHEDLEPPPEHIPPPPRPPKR-NH2 [MH136]”, at most 300 µM.

Staying with this experiment, now noted: Peptide truncation analysis; ITC, 25 °C, pH 8.0.
As for Ac-PEHIPPPPRPPKR-NH2 [MH029], the Kd is at most 300 µM. The same measure, in the same setting: next, Ac-RPPKR-NH2 [MH018, Ac-RPPKR-NH2]: over 1000 µM; `CC(=O)N1CCC[C@H]1C(=O)N1CCC[C@H]1C(=O)N[C@@H](CCCCN)C(N)=O` [MH015, Ac-PPK-NH2] (Ac-Pro-Pro-Lys-NH2): over 1000 µM; `CC(=O)N1CCC[C@H]1C(=O)N1CCC[C@H]1C(=O)N[C@@H](CCCCN)C(=O)N[C@@H](CCCNC(=N)N)C(N)=O` [MH017, Ac-PPKR-NH2] (Ac-PPKR-NH2): over 1000 µM. Same read-out and setting: next, Ac-PPPRPPKR-NH2 [MH024]: at most 300 µM. Same read-out and setting: next, Ac-PPPPRPPKR-NH2 [MH025]: at most 300 µM; Ac-PRPPK-NH2 [MH022, Ac-PRPPK-NH2]: over 1000 µM; Ac-EHIPPPPRPPKR-NH2 [MH028]: at most 300 µM.

Still in this experiment, the particulars now being: Sliding window peptide analysis; ITC, 25 °C, pH 8.0.
As for Ac-PPEHIP-NH2 [MH040, Ac-PPEHIP-NH2], the dissociation constant (Kd) was over 1000 µM. Same read-out and setting: under Ac-EHIPPP-NH2 [MH039, Ac-EHIPPP-NH2] stands over 1000 µM.

The experiment is the same for the next values; noted with them: exemplary control peptides; ITC, 25 °C, pH 8.0.
“H-PAVPPRP-NH2 [MH081, H-PAVPPRP-NH2, reference compound]” came in with a Kd of over 1000 µM. Turning to “Ac-PAVPPRP-NH2 [MH082, Ac-PAVPPRP-NH2, reference compound]”, the Kd is over 1000 µM.

Staying with this experiment, now noted: substitutions at position 1 of MD18; ITC, 25 °C, pH 8.0.
Regarding Ac-YPRPPKR-NH2 [MH119, Ac-YPRPPKR-NH2], the Kd is at most 300 µM. With Ac-GPRPPKR-NH2 [MH091, Ac-GPRPPKR-NH2], the dissociation constant (Kd) is at most 300 µM. The same measure, in the same setting: under Ac-MPRPPKR-NH2 [MH109, Ac-MPRPPKR-NH2] stands at most 300 µM; under Ac-IPRPPKR-NH2 [MH095, Ac-IPRPPKR-NH2], at most 300 µM. The compound Ac-HPRPPKR-NH2 [MH072, Ac-HPRPPKR-NH2] showed a Kd of at most 300 µM. On the same count and under the same terms, next, Ac-SPRPPKR-NH2 [MH074, Ac-SPRPPKR-NH2]: at most 300 µM. Still for that read-out and setting: under Ac-WPRPPKR-NH2 [MH117, Ac-WPRPPKR-NH2] stands at most 300 µM; under Ac-NPRPPKR-NH2 [MH069, Ac-NPRPPKR-NH2], at most 300 µM; under Ac-CPRPPKR-NH2 [MH070, Ac-CPRPPKR-NH2], at most 300 µM.

Staying with this experiment, now noted: substitutions at position 3 of MD18; ITC, 25 °C, pH 8.0.
In turn, Ac-PPKPPKR-NH2 [MH055, Ac-PPKPPKR-NH2] gave a Kd of at most 300 µM. On the same count and under the same terms, under Ac-PPQPPKR-NH2 [MH087, Ac-PPQPPKR-NH2] stands at most 300 µM; under Ac-PPVPPKR-NH2 [MH124, Ac-PPVPPKR-NH2], at most 300 µM; under Ac-PPGPPKR-NH2 [MH092, Ac-PPGPPKR-NH2], 600 to 1000 µM. The same measure, in the same setting: next, Ac-PPIPPKR-NH2 [MH096, Ac-PPIPPKR-NH2]: at most 300 µM.

The same experiment, now with this note: substitutions at position 4 of MD18 in a 7-mer; ITC, 25 °C, pH 8.0.
Ac-PPRWPKR-NH2 [MH118, Ac-PPRWPKR-NH2] returned a Kd of over 1000 µM. Still for that read-out and setting: under Ac-PPRLPKR-NH2 [MH101, Ac-PPRLPKR-NH2] stands 300 to 600 µM; under Ac-PPRHPKR-NH2 [MH132, Ac-PPRHPKR-NH2], over 1000 µM; under Ac-PPRGPKR-NH2 [MH093, Ac-PPRGPKR-NH2], over 1000 µM.

In turn, Ac-PPRKPKR-NH2 [MH104, Ac-PPRKPKR-NH2] came in with a dissociation constant Kd of 300 to 600 µM. Still for that read-out and setting: under Ac-PPRSPKR-NH2 [MH108, Ac-PPRSPKR-NH2] stands over 1000 µM.

Turning to Ac-PPRIPKR-NH2 [MH097, Ac-PPRIPKR-NH2], the Kd was at most 300 µM. Regarding Ac-PPRMPKR-NH2 [MH111, Ac-PPRMPKR-NH2], the Kd was over 1000 µM.

Staying with this experiment, now noted: substitutions at position 6 of MD18; ITC, 25 °C, pH 8.0.
Compound Ac-PPRPPHR-NH2 [MH049, Ac-PPRPPHR-NH2] yielded a Kd of at most 300 µM. With Ac-PPRPPER-NH2 [MH051, Ac-PPRPPER-NH2], the Kd was at most 300 µM. Still for that read-out and setting: next, Ac-PPRPPGR-NH2 [MH094, Ac-PPRPPGR-NH2]: 600 to 1000 µM; Ac-PPRPPTR-NH2 [MH116, Ac-PPRPPTR-NH2]: at most 300 µM.

Turning to Ac-PPRPPQR-NH2 [MH088, Ac-PPRPPQR-NH2], the Kd was at most 300 µM. Consider Ac-PPRPPLR-NH2 [MH102, Ac-PPRPPLR-NH2], for which the dissociation constant (Kd) was at most 300 µM. Still for that read-out and setting: under Ac-PPRPPFR-NH2 [MH105, Ac-PPRPPFR-NH2] stands 300 to 600 µM; under Ac-PPRPPSR-NH2 [MH052, Ac-PPRPPSR-NH2], at most 300 µM.

The same experiment, now with this note: substitutions at position 8 of the 8-mer MH063; ITC, 25 °C, pH 8.0; certain peptides tested one to three times.
The compound Ac-PPRPPKRN-NH2 [MH140] had a Kd of at most 300 µM. Ac-PPRPPKRY-NH2 [MH155]: the Kd is at most 300 µM. For Ac-PPRPPKRG-NH2 [MH145], the Kd was at most 300 µM. As for Ac-PPRPPKRD-NH2 [MH141], the Kd is at most 300 µM.

For Ac-PPRPPKRW-NH2 [MH154], the Kd is at most 300 µM.

Ac-PPRPPKRS-NH2 [MH152] displayed a Kd of at most 300 µM.
